Measurements as given in patent publication US10189837B2, “Crystalline (8S,9R)-5-fluoro-8-(4-fluorophenyl)-9-(1-methyl-1H-1,2,4-triazol-5-yl)-8,9-dihydro-2H-pyrido[4,3,2-de]phthalazin-3(7H)-one tosylate salt” (Medivation Technologies, LLC, priority 2010, dated 2019).

Legend:
Assay type in all cases: cell-based
[1] = test system: Mantle cell lymphoma cell line Granta-519; experiment: Single-agent cytotoxicity assay, CellTiter Glo cell survival; conditions: Homo sapiens, Granta-519, 96 h, 4-day assay
Method: (§1) Mantle cell lymphoma cell line Granta-519 was cultured in Dulbecco's MEM (4.5 g/L glucose) containing 10% FBS, 2 mM L-glutamine, 100 U/mL Penicillin and 100 μg/mL Streptomycin. Mantle cell lymphoma cell line Jeko-1 was cultured in RPMI1640 containing 10% FBS, 100 U/mL Penicillin and 100 μg/mL Streptomycin. Mantle cell lymphoma cell line Z138 was cultured in IMDM containing 10% horse serum, 100 U/mL Penicillin and 100 μg/mL Streptomycin. All cell lines were maintained in 37° C. incubator with 5% CO2 till ready for assay. Granta-519, Jeko-1 and Z138 cells were seeded at either 1000 or 5000 cells/well in 96-well plates. Cells were incubated for overnight at 37° C. before treated with their corresponding growth media containing free base in 0.1% DMSO at various concentrations ranging from 1000 nM to 0.32 nM. 0.1% DMSO was used as mock treatment or control. After 4 days incubation, cell survival was measured by CellTiter Glo (Promega) and cell survival fraction was calculated relative to control. GraphPad Prism5 software was used to plot data and calculate IC50 values.

[2] = test system: Mantle cell lymphoma cell line Jeko-1; experiment: as above; conditions: Homo sapiens, JeKo-1, 96 h, 4-day assay
Method: as §1

[3] = test system: Mantle cell lymphoma cell line Z138; experiment: as above; conditions: Homo sapiens, Z-138, 96 h, 4-day assay
Method: as §1

[4] = test system: Basaloid squamous cell line PE/CA-PJ34 (clone 12); experiment: Single-agent cytotoxicity assay in head & neck tumor cell lines
Method: (§2) Oral squamaous carcinoma HSC-3 and HSC-4 cells were cultured in MEM+10% FBS. Oral squamaous carcinoma CAL 27 was cultured in DMEM+10% FBS. Basaloid squamous cell line PE/CA-PJ34 (clone 12) was cultured in IMDM+10% FBS. All cell lines were maintained in their corresponding growth media containing 100 U/mL Penicillin and 100 μg/mL Streptomycin in 37° C. incubator with 5% CO2 till ready for assay. According to individual cell line growth rate, cells were seeded at different densities as indicated in each graph in 96-well plates in the time of assay. Cells were incubated for overnight at 37° C. before treated with their corresponding growth media containing free base in 0.1% DMSO at various concentrations ranging from 5000 nM to 0.064 nM. 0.1% DMSO was used as mock treatment or control. Media and compound were replenished every 5 days. After incubation for 7, 10, 11 or 13 days (as indicated in each graph), cell survival was measured by CellTiter Glo (Promega) and cell survival fraction was calculated relative to control. GraphPad Prism5 software was used to plot data and calculate IC50 values.

[5] = test system: Oral squamaous carcinoma CAL 27; experiment: as above; conditions: Homo sapiens
Method: as §2

[6] = test system: Oral squamaous carcinoma HSC-3 cells; experiment: as above; conditions: Homo sapiens
Method: as §2

[7] = test system: Oral squamaous carcinoma HSC-4 cells; experiment: as above; conditions: Homo sapiens
Method: as §2

For `Cn1ncnc1[C@H]1c2n[nH]c(=O)c3cc(F)cc(c23)N[C@@H]1c1ccc(F)cc1` [free base, (8S,9R)-5-fluoro-8-(4-fluorophenyl)-9-(1-methyl-1H-1,2,4-triazol-5-yl)-8,9-dihydro-2H-pyrido[4,3,2-de]phthalazin-3(7H)-one], the IC50 ([1]; Granta-519, 1000/well) was 1.7 nM, the IC50 ([1]; Granta-519, 5000/well) was 8.83 nM and the IC50 ([2]; Jeko-1, 1000/well) was 64.2 nM. It also gave an IC50 ([2]; Jeko-1, 5000/well) of 357 nM, an IC50 ([3]; Z-138, 1000/well) of 10.4 nM and an IC50 ([3]; Z-138, 5000/well) of 59.4 nM. The IC50 ([4]; 240 h, PE/CA-PJ34 C12, 10 days, 2000/well) was 13.6 nM, the IC50 ([4]; 312 h, PE/CA-PJ34 C12, 13 days, 1000/well) was 18.1 nM and the IC50 ([5]; CAL-27, 168 h, CAL27, 7 days, 800/well) was 23 nM. The IC50 ([5]; CAL-27, 264 h, CAL27, 11 days, 400/well) was 15.3 nM, the IC50 ([6]; 168 h, HSC-3, 7 days, 1500/well) was 972 nM and the IC50 ([6]; 264 h, HSC-3, 11 days, 750/well) was 931 nM. The IC50 ([7]; 168 h, HSC-4, 7 days, 100/well) was 58 nM and the IC50 ([7]; 264 h, HSC-4, 11 days, 200/well) was 48.8 nM.
